Reference: the supplement of paper PMC10307832

compound: CN1CCC(CC1)OC2=CC(=C(C=C2)NC3=NC=C4C(=N3)N(C(=O)N4C)C5CCCC5)OC [AZ3146] + Cc1nc(Nc2ncc(C(=O)Nc3c(C)cccc3Cl)s2)cc(N2CCN(CCO)CC2)n1 [Dasatinib] (partner 0.075 µM); test: relative viability (nuclei count vs DMSO), 5 days (fraction); higher = more cells survive; conditions: first compound 0.08 µM
Method in brief: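 Lung cancer cell lines were seeded in 1536-well plates and dosed by pin tool the next day, with either a single drug or a fixed anchor-drug dose combined with five library-drug doses (not always all listed) spaced in √10 steps. Five days later, one step fixed the cells and stained their nuclei (final 0.05% Triton X-100, 1% formaldehyde, 1 ug/ml Hoechst), and nuclei were counted on 4× images. Relative viability is the nuclei count in treated wells divided by the count in vehicle wells, and each value is the median of duplicate plates.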

| Cell Line | relative viability |
| --- | --- |
| LOU-NH91 | 0.581 |
| NCI-H647 | 0.214 |
| NCI-H23 | 0.894 |
| NCI-H2126 | 0.575 |
| LK-2 | 0.376 |
| NCI-H2342 | 0.293 |
| NCI-H1944 | 0.171 |
| NCI-H358 | 0.2 |
| SW 900 | 0.479 |
| NCI-H1792 | 0.737 |
| NCI-H1395 | 0.415 |
| NCI-H1563 | 0.482 |
| NCI-H1793 | 0.303 |
| NCI-H2170 | 0.497 |
| ABC-1 | 0.493 |
| SK-MES-1 | 0.42 |
| NCI-H727 | 0.418 |

same assay, conditions: first compound 0.253 µM

| Cell Line | relative viability |
| --- | --- |
| NCI-H522 | 0.73 |
| NCI-H1623 | 0.455 |
| PC-14 | 0.268 |
| NCI-H1666 | 0.818 |
| EKVX | 0.572 |
| NCI-H1755 | 0.425 |
| NCI-H2023 | 0.584 |
| HCC-78 | 0.304 |
| SK-LU-1 | 0.177 |
| PC-3 [JPC-3] | 0.92 |
| LOU-NH91 | 0.485 |
| NCI-H647 | 0.186 |
| NCI-H23 | 0.767 |
| EPLC-272H | 0.396 |
| NCI-H2126 | 0.629 |
| LK-2 | 0.218 |
| NCI-H2342 | 0.275 |
| NCI-H1944 | 0.194 |
| NCI-H358 | 0.135 |
| SW 900 | 0.456 |
| NCI-H1792 | 0.855 |
| NCI-H1395 | 0.381 |
| NCI-H1563 | 0.48 |
| NCI-H1793 | 0.412 |
| NCI-H2170 | 0.455 |
| ABC-1 | 0.56 |
| SK-MES-1 | 0.311 |
| NCI-H727 | 0.378 |

same assay, conditions: first compound 0.8 µM

| Cell Line | relative viability |
| --- | --- |
| NCI-H522 | 0.863 |
| NCI-H1623 | 0.498 |
| PC-14 | 0.259 |
| NCI-H1666 | 0.74 |
| EKVX | 0.5 |
| NCI-H1755 | 0.424 |
| NCI-H2023 | 0.472 |
| HCC-78 | 0.309 |
| SK-LU-1 | 0.162 |
| PC-3 [JPC-3] | 0.991 |
| LOU-NH91 | 0.632 |
| NCI-H647 | 0.178 |
| NCI-H23 | 0.612 |
| EPLC-272H | 0.347 |
| NCI-H2126 | 0.56 |
| LK-2 | 0.279 |
| NCI-H2342 | 0.29 |
| NCI-H1944 | 0.214 |
| NCI-H358 | 0.149 |
| SW 900 | 0.503 |
| NCI-H1395 | 0.327 |
| NCI-H1563 | 0.441 |
| NCI-H1793 | 0.404 |
| NCI-H2170 | 0.598 |
| ABC-1 | 0.562 |
| SK-MES-1 | 0.387 |
| NCI-H727 | 0.324 |

same assay, conditions: first compound 2.53 µM

| Cell Line | relative viability |
| --- | --- |
| NCI-H522 | 0.815 |
| NCI-H1623 | 0.601 |
| PC-14 | 0.229 |
| NCI-H1666 | 0.764 |
| EKVX | 0.565 |
| NCI-H1755 | 0.441 |
| NCI-H2023 | 0.498 |
| HCC-78 | 0.354 |
| SK-LU-1 | 0.182 |
| PC-3 [JPC-3] | 1.12 |
| LOU-NH91 | 0.602 |
| NCI-H647 | 0.216 |
| NCI-H23 | 0.756 |
| EPLC-272H | 0.413 |
| NCI-H2126 | 0.628 |
| LK-2 | 0.25 |
| NCI-H2342 | 0.29 |
| NCI-H1944 | 0.239 |
| NCI-H358 | 0.153 |
| SW 900 | 0.666 |
| NCI-H1792 | 0.808 |
| NCI-H1395 | 0.42 |
| NCI-H1563 | 0.422 |
| NCI-H1793 | 0.348 |
| NCI-H2170 | 0.61 |
| ABC-1 | 0.713 |
| SK-MES-1 | 0.316 |
| NCI-H727 | 0.362 |

same assay, conditions: first compound 8 µM

| Cell Line | relative viability |
| --- | --- |
| NCI-H522 | 1.02 |
| NCI-H1623 | 0.556 |
| PC-14 | 0.0367 |
| NCI-H1666 | 0.596 |
| EKVX | 0.535 |
| NCI-H1755 | 0.408 |
| NCI-H2023 | 0.147 |
| HCC-78 | 0.315 |
| SK-LU-1 | 0.137 |
| PC-3 [JPC-3] | 1.05 |
| LOU-NH91 | 0.566 |
| NCI-H647 | 0.138 |
| NCI-H23 | 0.97 |
| EPLC-272H | 0.287 |
| NCI-H2126 | 0.523 |
| LK-2 | 0.322 |
| NCI-H2342 | 0.345 |
| NCI-H1944 | 0.229 |
| NCI-H358 | 0.209 |
| SW 900 | 0.337 |
| NCI-H1792 | 0.822 |
| NCI-H1395 | 0.398 |
| NCI-H1563 | 0.448 |
| NCI-H1793 | 0.423 |
| NCI-H2170 | 0.491 |
| ABC-1 | 0.421 |
| SK-MES-1 | 0.258 |
| NCI-H727 | 0.384 |
